These results are taken from patent publication US20150209342A1, “TOPICAL RETINOID FORMULATIONS, PROCESSES FOR MAKING AND METHODS OF USE” (Allergan, Inc., priority 2014, published 2015).

≈ marks a conversion by molar mass, not a printed value.

A short description of the series: Tazarotene solubility in water, glycerin, and 70% glycerin solution. It is filed as physicochemical.

Broadly, the solubility is the dissolved amount per volume that the medium holds. Turning to `CCOC(=O)c1ccc(C#Cc2ccc3c(c2)C(C)(C)CCS3)nc1` [Tazarotene], the solubility is, setting by setting: (70% glycerin solution, aqueous with cosolvent or surfactant or cyclodextrin, 70% Glycerin, 5 °C) 0.27 µg/mL (≈ 0.768 µM); (70% glycerin solution, aqueous with cosolvent or surfactant or cyclodextrin, 70% Glycerin, 25 °C) 0.68 µg/mL (≈ 1.93 µM); (70% glycerin solution, aqueous with cosolvent or surfactant or cyclodextrin, 70% Glycerin, 40 °C) 4.43 µg/mL (≈ 12.6 µM); (glycerin, 5 °C, organic solvent or mixture) 72.6 µg/mL (≈ 207 µM); (glycerin, 25 °C, organic solvent or mixture) 34.7 µg/mL (≈ 98.7 µM); (glycerin, 40 °C, organic solvent or mixture) 527 µg/mL (≈ 1500 µM). In addition, the solubility reads like this: (water, 5 °C) 0.07 µg/mL (≈ 0.199 µM); (water, 25 °C) 0.04 µg/mL (≈ 0.114 µM); (water, 40 °C) 1.7 µg/mL (≈ 4.84 µM). For the same compound, the “solubility of tazarotene in glycerin” value (in words) is “low solubility”.
